Experimental data as given in patent publication US11224565B2, “N-acyldipeptide derivatives and their uses” (NeoStrata Company, Inc., priority 2011, dated 2022).
Values joined by “and” are separate entries in the source; they are usually repeats but may differ in a detail not shown here. Equal values may be shown once. Peptide text beside a SMILES is read from it.

Tests used:
Assay type in all cases: in vivo, human
forearm skin = assay: Skin thickness of forearm by micrometer calipers after topical application; settings: for appearance of treated left forearm at end of treatment: 1-3% (w/v) in WEP442 topically twice daily for 1-6 weeks as in the example, vehicle forearm still loose, thin and wrinkled; for increase in skin thickness of treated left forearm: 3% (w/v) in WEP442 topically twice daily, vehicle forearm no change
Procedure: In one of the studies related to skin changes associated with aging, skin thickness was measured by micrometer calipers as follows. The skin was grasped with a 2×6 cm metal hinge; the internal faces of which were coated with emery cloth to prevent slippage, and manually squeezed to threshold subject discomfort. Combined thickness of two whole-skin layers including thickness of the two hinge leaves was measured with micrometer calipers. Thickness of the two hinge leaves was subtracted to determine the actual thickness of two whole-skin layers. Triplicate measurements on treated sites were done and an average number was used for calculation of the skin thickness. In other studies, test sites of skin 17 mm in diameter were used, the circular sites were marked with permanent ink. Intervening control sites were also 17 mm in diameter. Thickness of skin of all sites was measured directly by means of an electronic digital caliper. In this instance the jaws of the caliper were opened to 17 mm, applied with pressure to the skin sites and then closed to firm tightness. Thickness of skin was then read off the screen of the calipers. Measurements of all sites were made in triplicates.

stretch marks = assay: Topical treatment of stretch marks; settings: twice daily, four weeks; 0.5% (w/w) N-Ac-L-Val-L-Ala-NH2 cream on one lesion, 0.5% (w/v) N-Ac-L-Tyr-L-Tyr-NH2 in WEP442 pH 6.7 on the other
Description: Stretch marks, known as striae, are visible linear scars caused by changes in collagen fibers and over stretching of the skin. Stretch marks are quite common in most adult women, and they readily develop at puberty or during pregnancy. They are also very common in obese people with sudden loss of weight. At present, there is no cure or effective treatment.
A subject, having lost a total of about 60 pounds from overweight over the last 10 years, developed multiple lesions of stretch marks over the body. The subject selected two separate lesions of stretch marks, and topically applied twice daily 0.5% (w/w) N—Ac-L-Val-L-Ala-NH2 cream (Example 2) on one lesion and 0.5% (w/v) N—Ac-L-Tyr-L-Tyr-NH2 solution in WEP442, pH 6.7 (Example 5) on the other lesion with untreated lesions of stretch marks as a control.
At the end of four weeks, the fine lines of stretch marks started to disappear, and deeper lines became less deep. The treated lesions had approximately 25% improvement as judged by clinical evaluation.

[1] = test system: pain and inflammation of joints and muscles; assay: Topical administration for pain and inflammation of sprained leg, shoulder or muscles
Procedure: A typical example of a topical administration for systemic therapeutic effects was carried out as follows. A subject, having sprained their left leg near the knee with inflammation for several weeks had severe pain each time walking. Massage therapy and conventional treatments provided only a temporary relief. The subject topically applied and rubbed 0.4% (w/v) N—Ac-L-Val-L-Ala-NH2 in WEP442, pH 5.8 as prepared in Example 5 onto the left thigh and calf sites of skin for 30 seconds at night.
The subject topically applied twice daily 0.5% (w/v) N—Ac-L-Tyr-L-Tyr-NH2 in WEP442 solution, pH 6.7 as prepared in Example 5. […] At the end of 5 days, the right shoulder had 90% improvement as determined by clinical evaluation.
The subject topically applied twice daily 0.5% (w/v) N—Ac-L-Val-L-Ala-NH2 in WEP442 solution, pH 6.7 as prepared in Example 5 to the affected area of skin. The pain diminished with less inflammation over the next day.
In yet another embodiment, the volunteer subject topically applied once or twice daily the test compositions containing N-acyldipeptide derivatives of the present invention on the skin site above arthritic joints or painful muscles to provide therapeutic effects for the systemic disorders via topical administration.

insect bites = assay: Topical application to insect bite lesions (itch, erythema, inflammation)
Procedure: A subject, having intensive itch and erythema on their left arm from insect bites, topically applied 10% (w/w) N—Ac-L-Leu-Gly-NH2 cream as formulated in Example 3 on the involved lesions.
A subject had multiple lesions of insect bites (mosquitoes) over the face and arms with itch and inflammatory lesions of more than 1 cm in size. For testing purposes, the subject divided the lesions into three groups: the first group was treated with vehicle control, the second and third groups were treated with active compositions. The subject topically applied twice daily 0.5% (w/v) N—Ac-L-Val-L-Ala-NH2 solution in WEP442, pH 5.9 on the lesions of the second group, and 0.5% (w/v) N—Ac-L-Tyr-L-Tyr-NH2 solution in WEP442, pH 6.7 (Example 5) on the lesions of the third group. […] The lesions in the second and third groups also started to improve over the next few days. At the end of three days, while there was no discernible change in the lesions treated with vehicle control in the first group, the lesions in the second and third groups had 90-100% improvement with nearly complete disappearance of inflammatory lesions.
A subject had multiple lesions of chigger bites (grass mites) over the legs with intensive itch and red inflammatory lesions. The subject topically applied twice daily 0.5% (w/v) N—Ac-L-Val-L-Ala-NH2 solution in WEP442, pH 6.7 (Example 5) on the lesions. […] The lesions on the legs had 100% improvement as judged by clinical evaluation.
In another embodiment, the volunteer subject topically applied the test compositions containing N-acyldipeptide derivatives of the present invention on involved skin or lesions once or twice daily for several weeks or until the involved lesions completely cleared and clinically changed to normal skin. As a control study, the subject also topically applied a vehicle control composition on the involved skin or lesions twice daily for the same period.

[2] = test system: fungal infections of two toe nails; assay: Topical treatment of fungal infections of toe nails; settings: twice daily, after several weeks; 0.5% (w/v) N-Ac-L-Tyr-L-Tyr-NH2 in WEP442 pH 6.7 on one nail, 0.5% (w/v) N-Ac-L-Tyr-L-Tyr-NHNHAc in WEP442 pH 5.5 on another
Description: A subject had fungal infections of two toe nails for many years. Topical treatments with clotrimazole and salicylic acid with or without glycolic acid had not been successful, as shown by the persistent appearance of white and sandy nail plates. The subject topically applied twice daily to one infected nail plate, 0.5% (w/v) N—Ac-L-Tyr-L-Tyr-NH2 in WEP442, pH 6.7 (Example 5), and to another infected nail plate, 0.5% (w/v) N—Ac-L-Tyr-L-Tyr-NHNHAc in WEP442, pH 5.5 (Example 5) for several months. […] Continued topical applications of the formulations should eradicate the nail infections, and the toe nails should start to grow normally.

[3] = mosquito bites face and arms, twice daily, 0.5% (w/v) N-Ac-L-Val-L-Ala-NH2 in WEP442 pH 5.9 (second group), 0.5% (w/v) N-Ac-L-Tyr-L-Tyr-NH2 in WEP442 pH 6.7 (third group)

| SMILES | appearance of treated left forearm at end of treatment (forearm skin) | increase in skin thickness of treated left forearm (forearm skin; after 2 weeks) | increase in skin thickness of treated left forearm (forearm skin; after 3 weeks) [%] | increase in skin thickness of treated left forearm (forearm skin; after 4 weeks) | improvement of treated stretch mark lesions as judged by clinical evaluation (stretch marks) | pain of sprained right shoulder ([1]; 0.5% (w/v) in WEP442 pH 6.7 topically twice daily, after three days) | improvement of right shoulder by clinical evaluation ([1]; 0.5% (w/v) in WEP442 pH 6.7 topically twice daily, end of 5 days) [%] | itch after topical application (insect bites; [3]) | white and sandy appearance of infected nail plates [2] | increase in skin thickness of treated left forearm (forearm skin; after 6 weeks) [%] | increase in skin thickness of treated left forearm (forearm skin; after one week) [%] | pain on walking ([1]; 0.4% (w/v) in WEP442 pH 5.8 rubbed onto left thigh and calf at night, sprained leg, next morning) | improvement of left leg by clinical evaluation ([1]; 0.4% (w/v) in WEP442 pH 5.8 rubbed onto left thigh and calf for 30 seconds at night, sprained leg, next morning) | muscle pain and inflammation in both arms ([1]; 0.5% (w/v) in WEP442 pH 6.7 topically twice daily, end of five days) | improvement of arms by clinical evaluation ([1]; 0.5% (w/v) in WEP442 pH 6.7 topically twice daily, muscle pain, end of five days) | itch after topical application (insect bites; 0.5% (w/v) in WEP442 pH 6.7 twice daily, chigger bites on legs) | improvement of lesions as judged by clinical evaluation (insect bites; 0.5% (w/v) in WEP442 pH 6.7 twice daily, chigger bites on legs, end of five days) [%] |
| --- | --- | --- | --- | --- | --- | --- | --- | --- | --- | --- | --- | --- | --- | --- | --- | --- | --- |
| CC(=O)N[C@@H](Cc1ccc(O)cc1)C(=O)N[C@@H](Cc1ccc(O)cc1)C(N)=O [N-Ac-L-Tyr-L-Tyr-NH2] (Ac-Tyr-Tyr-NH2) | more firm, smooth, plump, and less wrinkled when lifted | 13% and 19% | 14 | 17% and 21% | approximately 25% | disappeared completely | 90 | stopped completely within a few minutes | started to change gradually | – | – | – | – | – | – | – | – |
| CC(=O)NNC(=O)[C@H](Cc1ccc(O)cc1)NC(=O)[C@H](Cc1ccc(O)cc1)NC(C)=O [N-Ac-L-Tyr-L-Tyr-NHNHAc] | more firm, smooth, plump, and less wrinkled when lifted | 7% | 32 | – | – | – | – | – | started to change gradually | 23 | 21 | – | – | – | – | – | – |
| CC(=O)N[C@H](C(=O)N[C@@H](C)C(N)=O)C(C)C [N-Ac-L-Val-L-Ala-NH2] (Ac-Val-Ala-NH2) | – | – | – | – | approximately 25% | – | – | stopped completely within a few minutes | – | – | – | could walk slowly without feeling any pain | approximately 75% | disappeared completely | 95%-100% | stopped within a few minutes | 100 |
